# Reference: PMC12227560, “Total synthesis of a sorrentanone ester library and evaluation of its antimicrobial potential” (Scientific Reports, 2025)
# Like-named read-outs stand apart in the source and are kept apart here.
# What was measured:
# [1] = tested on: C. albicans ATCC10231; assay: Antimicrobial broth micro-dilution assay (MIC); assay type: cell-based; conditions: Candida albicans, read-out: Minimum inhibitory concentration (MIC)
# Text: (§1) 3. Bioactivity and Toxicity Assays
# (§2) Antimicrobial assay: According to the standard broth micro-dilution assays, following the Standards of European Committee on Antimicrobial Susceptibility Testing (v 7.3.1: Method for the determination of broth dilution minimum inhibitory concentrations of antifungal agents for yeasts) for Candida spp., and according to the standard broth micro-dilution assays, recommended by the National Committee for Clinical Laboratory Standards (M07-A8) for bacteria MIC values of compounds were determinate. Compounds were dissolved in DMSO at a concentration of 50 mg/mL, and the highest tested concentration was 250 µg/mL. The inoculums were 1x10^5 colony forming units (CFU/mL), for Candida species, and bacteria species, 5x10^5 colony forming units (CFU/mL). The MIC value was recorded as the lowest concentration that inhibited the growth after 24 h at 37 °C. Additionally, 5 µL from each well of 96 well plates was transferred to Luria Agar (LA) plates for bacteria and Sabouraud agar (SAB) plates for Candida spp. and incubated for an additional 24 h at 37 °C, to determine MBC (Minimum bactericidal/fungicidal concentration) values. In Table 1. Are labeled compounds showing a difference in MBC and previously determined MIC values. […]
# [2] = tested on: B. subtilis ATCC6633; assay: Antimicrobial broth micro-dilution assay (MIC); assay type: cell-based; conditions: Bacillus subtilis, read-out: Minimum inhibitory concentration (MIC)
# Text: as §1, §2
# [3] = tested on: S. aureus MRSA; assay: Antimicrobial broth micro-dilution assay (MIC); assay type: cell-based; conditions: Staphylococcus aureus, read-out: Minimum inhibitory concentration (MIC)
# Text: as §1, §2
# [4] = tested on: S. aureus ATCC25923; assay: Antimicrobial broth micro-dilution assay (MIC); assay type: cell-based; conditions: Staphylococcus aureus, read-out: Minimum inhibitory concentration (MIC)
# Text: as §1, §2
# [5] = tested on: P. aeruginosa ATCC27853; assay: Antimicrobial broth micro-dilution assay (MIC); assay type: cell-based; conditions: Pseudomonas aeruginosa, read-out: Minimum inhibitory concentration (MIC)
# Text: as §1, §2
# [6] = tested on: E. coli NCTC9001; assay: Antimicrobial broth micro-dilution assay (MIC); assay type: cell-based; conditions: Escherichia coli, read-out: Minimum inhibitory concentration (MIC)
# Text: as §1, §2
# [7] = tested on: human lung fibroblast cell line (MRC-5); assay: Cytotoxicity evaluation by MTT assay; assay type: cell-based
# Text: as §1
# Antimicrobial assay: According to the standard broth micro-dilution assays, following the Standards of European Committee on Antimicrobial Susceptibility Testing (v 7.3.1: Method for the determination of broth dilution minimum inhibitory concentrations of antifungal agents for yeasts) for Candida spp., and according to the standard broth micro-dilution assays, recommended by the National Committee for Clinical Laboratory Standards (M07-A8) for bacteria MIC values of compounds were determinate. Compounds were dissolved in DMSO at a concentration of 50 mg/mL, and the highest tested concentration was 250 µg/mL. The inoculums were 1x10^5 colony forming units (CFU/mL), for Candida species, and bacteria species, 5x10^5 colony forming units (CFU/mL). The MIC value was recorded as the lowest concentration that inhibited the growth after 24 h at 37 °C. Additionally, 5 µL from each well of 96 well plates was transferred to Luria Agar (LA) plates for bacteria and Sabouraud agar (SAB) plates for Candida spp. and incubated for an additional 24 h at 37 °C, to determine MBC (Minimum bactericidal/fungicidal concentration) values. In Table 1. Are labeled compounds showing a difference in MBC and previously determined MIC values.
# Cytotoxicity evaluation: Antiproliferative activity was tested by MTT assay (3-(4,5-dimethylthiazol-2-yl)-2,5-diphenyltetrazoliumbromide) on a human lung fibroblast cell line (MRC-5; ATCC collection). Pre-grown (24 h) cell monolayers (1x10^4 cells per well) in RPMI 1640 medium supplemented with 100 μg/mL streptomycin, 100 U/mL penicillin, and 10% (v/v) FBS (all from Sigma, Munich, Germany) containing the tested compounds at concentrations ranging from 5 to 20 μg/mL were incubated in a humidified atmosphere of 95% air and 5% CO2 at 37 °C for 48 h. The cell viability (extent of MTT reduction) was measured spectrophotometrically at 540 nm using the Epoch 2000 multiplate reader, and the cell survival was expressed as a percentage of the control (untreated cells). Cytotoxicity was expressed as the concentration of the compound inhibiting cell growth by 50% (IC 50). […]
# [8] = tested on: Caenorhabditis elegans; assay: In vivo toxicity C. elegans survival assay; conditions: C. elegans model
# Protocol: 3. Bioactivity and Toxicity Assays […]
# Compounds were dissolved in DMSO at a concentration of 50 mg/mL, and the highest tested concentration was 250 µg/mL. […]
# In vivo toxicity C. elegans assay: The C. elegans survival assay was carried out as described previously with some modifications. 8 In brief, synchronized worms (L4 stage) were suspended in a medium containing 95% M9 buffer (3.0 g of KH2PO4, 6.0 g of Na2HPO4, 5.0 g of NaCl, and 1 mL of 1 M MgSO4 × 7H2O in 1 L of water), 5% LB (Luria-Bertani) broth (Oxoid, Basingstoke, UK), and 10 μg of cholesterol (Sigma -Aldrich, Munich, Germany) per mL. The experiment was carried out in 96 -well flat -bottomed microtiter plates (Sarstedt, Nümbrecht, Germany) in the final volume of 100 μL per wel l. 25 μL of this suspension of nematodes (25 –35 nematodes) were transferred to the wells of a 96 -well microtiter plate, where 50 μL of the medium was previously added. Next, 25 μL of a solvent control (DMSO) or 25 μL of a concentrated solution was added to the test wells. The final concentrations of the compounds were 50, 25, 10, and 5 µg/mL. Subsequently, the plates were incubated at 25 °C for 2 days. The fraction of dead worms was determined after 48 h by counting the number of dead worms and the total number of worms in each well, using a stereomicroscope (SMZ143-N2GG, Motic, Germany).
# As a negative control experiment, nematodes were exposed to the medium containing 1% […]
# Ergosterol biosynthesis assay: Ergosterol levels were measured according to the published procedure with some minor modifications. 10 Briefly, a sing le C. albicans colony from an overnight Sabouraud dextrose agar plate was used to inoculate 50 ml of Sabouraud dextrose broth containing 0.5 MIC concentrated compounds. Incubation was performed for 18 h at 37 °C on the rotary shaker at 180 rpm. Cells were harvested by centrifugation at 3000 rpm for 5 min and washed once with sterile distilled water. The net wet weight of the cell pellet was determined. Three milliliters of 25% alcoholic potassium hydroxide solution (25 g of KOH and 35 ml of sterile distill ed water, brought to 100 ml with 100% ethanol), was added to each pellet and vortex mixed for 1 min and incubated in an 85 °C water bath for 1 h. Tubes were cooled to room temperature and extraction of sterols was done with the addition of a mixture of 1 ml of sterile distilled water and 3 ml of n-heptane followed by vigorous vortex mixing for 3 min. The heptane layer was used for spectrophotometrically measuring ergosterol concentrations by scanning absorbance between 240 nm and 300 nm using Ultrospec 3300pro 573 (Amer sham Biosciences, Amersham, UK).
# [9] = tested on: two S. aureus strains and B. subtilis ATCC6633; assay: Antimicrobial assay, Gram-positive bacteria; assay type: cell-based; conditions: from MIC values
# Text: as §1, §2
# [10] = C. albicans ATCC10231, 24 h at 37 °C, highest tested concentration 250 µg/mL
# [11] = B. subtilis ATCC6633, 24 h at 37 °C, highest tested concentration 250 µg/mL
# [12] = S. aureus MRSA, 24 h at 37 °C, highest tested concentration 250 µg/mL
# [13] = S. aureus ATCC25923, 24 h at 37 °C, highest tested concentration 250 µg/mL
# [14] = P. aeruginosa ATCC27853, 24 h at 37 °C, highest tested concentration 250 µg/mL
# [15] = E. coli NCTC9001, 24 h at 37 °C, highest tested concentration 250 µg/mL
SMILES,"MIC [1, 10] [µg/mL]","MIC [2, 11] [µg/mL]","MIC [3, 12] [µg/mL]","MIC [4, 13] [µg/mL]","MIC [5, 14] [µg/mL]","MIC [6, 15] [µg/mL]","MIC ([1]; ATCC10231, 24 h) [µg/mL]","MIC ([2]; ATCC6633, 24 h) [µg/mL]","MIC ([3]; MRSA, 24 h) [µg/mL]","MIC ([4]; ATCC25923, 24 h) [µg/mL]","MIC ([5]; ATCC27853, 24 h) [µg/mL]","MIC ([6]; NCTC9001, 24 h) [µg/mL]","selectivity index (SI) ([7]; cytotoxicity versus antibiotic activity, calculation not described)",in vivo toxicity (in words) [8],improvement of antibacterial activity compared to sorrentanone (7) [9],"cell survival ([7]; MRC-5 cells, 10 µg/mL, 48 h)"
CCCCCCOC(=O)C1=C(C)C(=O)C(O)=C(C)C1=O [compound 35],62.5,7.81,31.2,31.2,> 250,> 250,–,–,–,–,–,–,–,–,–,–
COC(=O)C1=C(C)C(=O)C(O)=C(C)C1=O [compound 28],> 250,15.6,31.2,62.5,> 250,> 250,–,–,–,–,–,–,–,–,–,–
"CN[C@H](CC(C)C)C(=O)N[C@H]1C(=O)N[C@@H](CC(N)=O)C(=O)N[C@H]2C(=O)N[C@H]3C(=O)N[C@H](C(=O)N[C@H](C(=O)O)c4cc(O)cc(O)c4-c4cc3ccc4O)[C@H](O)c3ccc(c(Cl)c3)Oc3cc2cc(c3O[C@@H]2O[C@H](CO)[C@@H](O)[C@H](O)[C@H]2O[C@H]2C[C@](C)(N)[C@H](O)[C@H](C)O2)Oc2ccc(cc2Cl)[C@H]1O [vancomycin, reference compound]",–,–,–,–,–,–,50,0.4,0.5,1,125,125,200,–,–,–
CCCCOC(=O)C1=C(C)C(=O)C(O)=C(C)C1=O [compound 31],> 250,15.6,31.2,31.2,> 250,> 250,–,–,–,–,–,–,–,–,–,–
CCCOC(=O)C1=C(C)C(=O)C(O)=C(C)C1=O [compound 30],> 250,15.6,62.5,62.5,> 250,> 250,–,–,–,–,–,–,–,–,–,–
CC1=C(O)C(=O)C(C)=C(C(=O)OCC(C)C)C1=O [compound 32],> 250,31.2,31.2,31.2,> 250,> 250,–,–,–,–,–,–,–,–,–,–
C#CCCOC(=O)C1=C(C)C(=O)C(O)=C(C)C1=O [compound 38],> 250,31.2,31.2,62.5,> 250,> 250,–,–,–,–,–,–,–,–,–,–
C=CCCOC(=O)C1=C(C)C(=O)C(O)=C(C)C1=O [compound 37],> 250,31.2,31.2,62.5,> 250,> 250,–,–,–,–,–,–,–,–,–,–
CCCCCOC(=O)C1=C(C)C(=O)C(O)=C(C)C1=O [compound 33],> 250,15.6,15.6,15.6,> 250,> 250,–,–,–,–,–,–,–,comparatively lower in vivo toxicity,two- to four-fold improved activity,–
CCOC(=O)C1=C(C)C(=O)C(O)=C(C)C1=O [compound 29],> 250,15.6,62.5,62.5,> 250,> 250,–,–,–,–,–,–,–,–,–,–
CC1=C(O)C(=O)C(C)=C(C(=O)OCCC(C)C)C1=O [compound 34],> 250,15.6,15.6,15.6,> 250,> 250,–,–,–,–,–,–,–,–,two- to four-fold improved activity,–
C#CCCCOC(=O)C1=C(C)C(=O)C(O)=C(C)C1=O [compound 40],62.5,31.2,62.5,31.2,> 250,> 250,–,–,–,–,–,–,–,–,–,over 60%
